We go through 10 compounds from ChEMBL document CHEMBL3817807, “Sequence-specific DNA binding by long hairpin pyrrole-imidazole polyamides containing an 8-amino-3,6-dioxaoctanoic acid unit” (Bioorg Med Chem, 2016).

Values after ≈ are worked out from the molar mass of the structure shown. Active and inactive are the calls of the source. No cut-off for these calls is given here.

One may read the solubility as the dissolved amount per volume that the medium holds.

Data set [1] can be described thus: Binding affinity to 5'-biotin labeled GCGAGGCAGACACGCTTTTGCGTGTCTGCCTCGC-3' DNA (unknown origin) by SPR analysis. A general note: Surface plasmon resonance follows binding to a sensor surface in real time, without labels.
Data set [2] in a line: Binding affinity to 5'-biotin labeled GCGAGGCAGACACGCTTTTGCGTGTCTGCCTCGC-3' DNA (unknown origin) assessed as association rate by SPR analysis.
A short description of data set [3]: Binding affinity to 5'-biotin labeled GCGAGGCAGACACGCTTTTGCGTGTCTGCCTCGC-3' DNA (unknown origin) assessed as dissociation rate by SPR analysis.
Data set [4] in a line: Aqueous solubility of the compound […] assessed as saturation concentration by nanodrop analysis. The class given is physicochemical.
Data set [5] is described as follows: Drug uptake in human MDA-MB-231 cell nucleus at 10 uM after 72 hrs by FITC/Hoechst 33342-staining based confocal microscopic analysis. The class given is ADME. Conditions: mda-mb-231, 72 h.
A short description of data set [6]: Binding affinity to AGTCGGCCT oligonucleotide DNA sequence (unknown origin) at 50 nM incubated for 16 hrs by PCR based Bind-n-Seq analysis.
A short description of data set [7]: Binding affinity to TGTCAGCCT oligonucleotide DNA sequence (unknown origin) at 50 nM incubated for 16 hrs by PCR based Bind-n-Seq analysis.
Data set [8] in a line: Binding affinity to AGGCAGACT oligonucleotide DNA sequence (unknown origin) at 50 nM incubated for 16 hrs by PCR based Bind-n-Seq analysis.
Data set [9] is described as follows: Binding affinity to AGTCTGCCT oligonucleotide DNA sequence (unknown origin) at 50 nM incubated for 16 hrs by PCR based Bind-n-Seq analysis.
Data set [10] in a line: Binding affinity to ATGTCTGCC oligonucleotide DNA sequence (unknown origin) at 50 nM incubated for 16 hrs by PCR based Bind-n-Seq analysis.
A short description of data set [11]: Binding affinity to TTGTCGGCC oligonucleotide DNA sequence (unknown origin) at 50 nM incubated for 16 hrs by PCR based Bind-n-Seq analysis.
Data set [12] can be described thus: Binding affinity to AGTCAGCCT oligonucleotide DNA sequence (unknown origin) at 50 nM incubated for 16 hrs by PCR based Bind-n-Seq analysis.
A short description of data set [13]: Binding affinity to TGGCAGACT oligonucleotide DNA sequence (unknown origin) at 50 nM incubated for 16 hrs by PCR based Bind-n-Seq analysis.
Data set [14] is described as follows: Binding affinity to TAGTCGGCC oligonucleotide DNA sequence (unknown origin) at 50 nM incubated for 16 hrs by PCR based Bind-n-Seq analysis.
Data set [15] in a line: Binding affinity to TGGCAGACA oligonucleotide DNA sequence (unknown origin) at 50 nM incubated for 16 hrs by PCR based Bind-n-Seq analysis.
Data set [16] is described as follows: Binding affinity to CTCTCTGCA oligonucleotide DNA sequence (unknown origin) at 50 nM incubated for 16 hrs by PCR based Bind-n-Seq analysis.
A short description of data set [17]: Binding affinity to GGGCTAGAC oligonucleotide DNA sequence (unknown origin) at 50 nM incubated for 16 hrs by PCR based Bind-n-Seq analysis.
A short description of data set [18]: Binding affinity to GGGCAGTCA oligonucleotide DNA sequence (unknown origin) at 50 nM incubated for 16 hrs by PCR based Bind-n-Seq analysis.
A short description of data set [19]: Binding affinity to GTCTCCGAA oligonucleotide DNA sequence (unknown origin) at 50 nM incubated for 16 hrs by PCR based Bind-n-Seq analysis.
A short description of data set [20]: Binding affinity to ACAGCCTCG oligonucleotide DNA sequence (unknown origin) at 50 nM incubated for 16 hrs by PCR based Bind-n-Seq analysis.
The nature of data set [21]: Binding affinity to GTGAGCCTA oligonucleotide DNA sequence (unknown origin) at 50 nM incubated for 16 hrs by PCR based Bind-n-Seq analysis.
The nature of data set [22]: Binding affinity to AGGCTCTCA oligonucleotide DNA sequence (unknown origin) at 50 nM incubated for 16 hrs by PCR based Bind-n-Seq analysis.
The nature of data set [23]: Binding affinity to ATCGGCAGA oligonucleotide DNA sequence (unknown origin) at 50 nM incubated for 16 hrs by PCR based Bind-n-Seq analysis.
Data set [24] in a line: Binding affinity to AATTTACCT oligonucleotide DNA sequence (unknown origin) at 50 nM incubated for 16 hrs by PCR based Bind-n-Seq analysis.
Data set [25] can be described thus: Binding affinity to GAGTCTCCC oligonucleotide DNA sequence (unknown origin) at 50 nM incubated for 16 hrs by PCR based Bind-n-Seq analysis.

Turning to `CC(=O)Nc1cn(C)c(C(=O)Nc2cn(C)c(C(=O)NCCOCCOCC(=O)Nc3cn(C)c(C(=O)Nc4cc(C(=O)Nc5cc(C(=O)NCCCC(=O)Nc6cn(C)c(C(=O)Nc7cc(C(=O)Nc8cc(C(=O)NCCC(=O)Nc9cn(C)c(C(=O)Nc%10cc(C(=O)Nc%11cc(C(=O)NCCC(=O)NCCCN(C)CCCN)n(C)c%11)n(C)c%10)n9)n(C)c8)n(C)c7)n6)n(C)c5)n(C)c4)n3)n2)n1`, the Kd in data set [1] was found to be 18 nM; in [3], 1.8 ×10⁻³ /s. Further, the Ka in data set [2] came out at 1 ×10⁵ /Ms. In addition, in data set [4], the solubility came out at 12.2 mM (≈ 23.3 mg/mL).

As for `CC(=O)Nc1cn(C)c(C(=O)Nc2cn(C)c(C(=O)Nc3cc(C(=O)NCCC(=O)Nc4cn(C)c(C(=O)Nc5cc(C(=O)Nc6cc(C(=O)NCCCC(=O)Nc7cn(C)c(C(=O)Nc8cc(C(=O)Nc9cc(C(=O)NCCC(=O)Nc%10cn(C)c(C(=O)Nc%11cc(C(=O)Nc%12cc(C(=O)NCCC(=O)NCCCN(C)CCCNC(=S)Nc%13ccc%14c(c%13)C(=O)OC%14%13c%14ccc(O)cc%14Oc%14cc(O)ccc%14%13)n(C)c%12)n(C)c%11)n%10)n(C)c9)n(C)c8)n7)n(C)c6)n(C)c5)n4)n(C)c3)n2)n1`, in data set [5], the Drug uptake entry is “Active”.

As to `CC(=O)Nc1cn(C)c(C(=O)Nc2cn(C)c(C(=O)NCCOCCOCC(=O)Nc3cn(C)c(C(=O)Nc4cc(C(=O)Nc5cc(C(=O)NCCCC(=O)Nc6cn(C)c(C(=O)Nc7cc(C(=O)NCCOCCOCC(=O)Nc8cn(C)c(C(=O)Nc9cc(C(=O)Nc%10cc(C(=O)NCCC(=O)NCCCN(C)CCCN)n(C)c%10)n(C)c9)n8)n(C)c7)n6)n(C)c5)n(C)c4)n3)n2)n1`, the values for the Kd in data set [1] and in [3] were 16 nM and 3 ×10⁻⁴ /s, respectively. Further, in [2], the Ka worked out at 1.8 ×10⁴ /Ms. Moreover, the solubility in [4] amounted to 13.9 mM (≈ 25.9 mg/mL).

As to `CC(=O)Nc1cn(C)c(C(=O)Nc2cn(C)c(C(=O)Nc3cc(C(=O)NCCC(=O)Nc4cn(C)c(C(=O)Nc5cc(C(=O)Nc6cc(C(=O)NCCCC(=O)Nc7cn(C)c(C(=O)Nc8cc(C(=O)Nc9cc(C(=O)NCCC(=O)Nc%10cn(C)c(C(=O)Nc%11cc(C(=O)Nc%12cc(C(=O)NCCC(=O)NCCCN(C)CCCN)n(C)c%12)n(C)c%11)n%10)n(C)c9)n(C)c8)n7)n(C)c6)n(C)c5)n4)n(C)c3)n2)n1`, the Kd in data set [1] stood at 5.9 nM; in [3], 1.4 ×10⁻³ /s. Also, the Ka in [2] amounted to 2.4 ×10⁵ /Ms. In addition, in data set [4], the solubility came out at 9.1 mM (≈ 17.8 mg/mL).

As for `CC(=O)Nc1cn(C)c(C(=O)Nc2cn(C)c(C(=O)NCCOCCOCC(=O)Nc3cn(C)c(C(=O)Nc4cc(C(=O)Nc5cc(C(=O)NCCCC(=O)Nc6cn(C)c(C(=O)Nc7cc(C(=O)NCCOCCOCC(=O)Nc8cn(C)c(C(=O)Nc9cc(C(=O)Nc%10cc(C(=O)NCCC(=O)NCCCN(C)CCCNC(=S)Nc%11ccc%12c(c%11)C(=O)OC%12%11c%12ccc(O)cc%12Oc%12cc(O)ccc%12%11)n(C)c%10)n(C)c9)n8)n(C)c7)n6)n(C)c5)n(C)c4)n3)n2)n1`, the Drug uptake result in data set [5] is “Active”.

For `CC(=O)Nc1cn(C)c(C(=O)Nc2cn(C)c(C(=O)NCCOCCOCC(=O)Nc3cn(C)c(C(=O)Nc4cc(C(=O)Nc5cc(C(=O)NCCCC(=O)Nc6cn(C)c(C(=O)Nc7cc(C(=O)NCCOCCOCC(=O)Nc8cn(C)c(C(=O)Nc9cc(C(=O)Nc%10cc(C(=O)NCCC(=O)NCCCN(C)CCCNC(=O)CCOCCOCCOCCOCCOCCOCCOCCOCCOCCOCCOCCOCCNC(=O)CCCC[C@@H]%11SC[C@@H]%12NC(=O)N[C@@H]%12%11)n(C)c%10)n(C)c9)n8)n(C)c7)n6)n(C)c5)n(C)c4)n3)n2)n1`, the outcome in [6], in data set [7], in data set [8], in [9], in data set [10] and in data set [11] was Active. Also, the result in [12], in data set [13], in data set [14] and in [15] was Active.

`CC(=O)Nc1cn(C)c(C(=O)Nc2cn(C)c(C(=O)NCCC(=O)NCCC(=O)Nc3cn(C)c(C(=O)Nc4cc(C(=O)Nc5cc(C(=O)NCCCC(=O)Nc6cn(C)c(C(=O)Nc7cc(C(=O)Nc8cc(C(=O)NCCC(=O)Nc9cn(C)c(C(=O)Nc%10cc(C(=O)Nc%11cc(C(=O)NCCC(=O)NCCCN(C)CCCNC(=O)CCOCCOCCOCCOCCOCCOCCOCCOCCOCCOCCOCCOCCNC(=O)CCCC[C@@H]%12SC[C@@H]%13NC(=O)N[C@@H]%13%12)n(C)c%11)n(C)c%10)n9)n(C)c8)n(C)c7)n6)n(C)c5)n(C)c4)n3)n2)n1`: the outcome in data set [16], in [17], in [18], in [19], in [20] and in [21] was Active. The outcome in [22], in data set [23], in [24] and in data set [25] was Active.

Take `CC(=O)Nc1cn(C)c(C(=O)Nc2cn(C)c(C(=O)NCCC(=O)NCCC(=O)Nc3cn(C)c(C(=O)Nc4cc(C(=O)Nc5cc(C(=O)NCCCC(=O)Nc6cn(C)c(C(=O)Nc7cc(C(=O)Nc8cc(C(=O)NCCC(=O)Nc9cn(C)c(C(=O)Nc%10cc(C(=O)Nc%11cc(C(=O)NCCC(=O)NCCCN(C)CCCN)n(C)c%11)n(C)c%10)n9)n(C)c8)n(C)c7)n6)n(C)c5)n(C)c4)n3)n2)n1`: the Kd came out at 15 nM in [1] and 1.9 ×10⁻³ /s in data set [3]. Further, the Ka in data set [2] is 1.3 ×10⁵ /Ms.

With `CC(=O)Nc1cn(C)c(C(=O)Nc2cn(C)c(C(=O)NCCOCCOCC(=O)Nc3cn(C)c(C(=O)Nc4cc(C(=O)Nc5cc(C(=O)NCCCC(=O)Nc6cn(C)c(C(=O)Nc7cc(C(=O)Nc8cc(C(=O)NCCC(=O)Nc9cn(C)c(C(=O)Nc%10cc(C(=O)Nc%11cc(C(=O)NCCC(=O)NCCCN(C)CCCNC(=S)Nc%12ccc%13c(c%12)C(=O)OC%13%12c%13ccc(O)cc%13Oc%13cc(O)ccc%13%12)n(C)c%11)n(C)c%10)n9)n(C)c8)n(C)c7)n6)n(C)c5)n(C)c4)n3)n2)n1`, the Drug uptake entry in data set [5] was “Active”.

Take `CC(=O)Nc1cn(C)c(C(=O)Nc2cn(C)c(C(=O)Nc3cc(C(=O)NCCC(=O)Nc4cn(C)c(C(=O)Nc5cc(C(=O)Nc6cc(C(=O)NCCCC(=O)Nc7cn(C)c(C(=O)Nc8cc(C(=O)NCCOCCOCC(=O)Nc9cn(C)c(C(=O)Nc%10cc(C(=O)Nc%11cc(C(=O)NCCC(=O)NCCCN(C)CCCN)n(C)c%11)n(C)c%10)n9)n(C)c8)n7)n(C)c6)n(C)c5)n4)n(C)c3)n2)n1`: the Kd in data set [1] came to 250 nM; in [3] it was 4.5 ×10⁻³ /s. Moreover, the Ka in data set [2] was 1 ×10⁴ /Ms.
